#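 Method: 48-hour compound exposure of cells in 96-well plates, five concentrations, linear interpolation of endpoints. The concentration for full growth arrest is given as TGI.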
# Assays:
# Assay in all cases: DTP human tumour cell line panel, 48 h
# [1] = system: SF-295 CNS
# [2] = system: RXF 393 renal
# [3] = system: MDA-MB-231 breast
# [4] = system: SNB-19 CNS
# [5] = system: OVCAR-4 ovarian
# [6] = system: A549 NSCLC
# [7] = system: SN12C renal
# [8] = system: SK-MEL-2 melanoma
# [9] = system: BT-549 breast
# [10] = system: SK-MEL-5 melanoma
# [11] = system: ACHN renal
# [12] = system: UO-31 renal
# [13] = system: HT29 colon
# [14] = system: EKVX NSCLC
# [15] = system: SK-MEL-28 melanoma
# [16] = system: T-47D breast
# [17] = system: NCI-H460 lung
# [18] = system: NCI-H23 lung
# [19] = system: 786-0 renal
# [20] = system: IGROV1 ovarian
# [21] = system: PC-3 prostate
# [22] = system: HCC-2998 colon
# [23] = system: U251 CNS
# [24] = system: HL-60(TB) leukemia
# [25] = system: CCRF-CEM leukemia
# [26] = system: NCI/ADR-RES ovarian
# [27] = system: UACC-257 melanoma
# [28] = system: SNB-75 CNS
# [29] = system: MOLT-4 leukemia
# [30] = system: SF-539 CNS
# [31] = system: HCT-116 colon
# [32] = system: TK-10 renal
# [33] = system: HOP-92 NSCLC
# [34] = system: NCI-H522 lung
# [35] = system: SR leukemia
# [36] = system: HCT-15 colon
# [37] = system: MALME-3M melanoma
# [38] = system: MCF7 breast
# [39] = system: SW-620 colon
# [40] = system: NCI-H226 lung
# [41] = system: SK-OV-3 ovarian
# [42] = system: MDA-N
# [43] = system: LOX IMVI melanoma
# [44] = system: OVCAR-5 ovarian
# [45] = system: COLO 205 colon
# [46] = system: MDA-MB-435
# [47] = system: CAKI-1 renal
# [48] = system: UACC-62 melanoma
# [49] = system: OVCAR-8 ovarian
# [50] = system: DU-145 prostate
# [51] = system: OVCAR-3 ovarian
# [52] = system: M14 melanoma
# [53] = system: KM12 colon
# [54] = system: K-562 leukemia
# [55] = system: A498 renal
# [56] = system: HOP-62 NSCLC
# [57] = system: RPMI-8226 leukemia
# [58] = system: SF-268 CNS
smiles,measurement,setting,value
Cc1ccc(S(=O)/C=C(\NC(=O)OCc2ccccc2)C(F)(F)F)cc1 (stereo not drawn),TGI,[1],> 100 µM
same,TGI,[2],> 100 µM
same,TGI,[3],> 100 µM
same,TGI,[4],> 100 µM
same,TGI,[5],> 100 µM
same,TGI,[6],> 100 µM
same,TGI,[7],> 100 µM
same,TGI,[8],> 100 µM
same,TGI,[9],> 100 µM
same,TGI,[10],> 100 µM
same,TGI,[11],71 µM
same,TGI,[12],73.4 µM
same,TGI,[13],> 100 µM
same,TGI,[14],> 100 µM
same,TGI,[15],72 µM
same,TGI,[16],> 100 µM
same,TGI,[17],> 100 µM
same,TGI,[18],> 100 µM
same,TGI,[19],> 100 µM
same,TGI,[20],> 100 µM
same,TGI,[21],> 100 µM
same,TGI,[22],> 100 µM
same,TGI,[23],55.2 µM
same,TGI,[24],42 µM
same,TGI,[25],72.4 µM
same,TGI,[26],> 100 µM
same,TGI,[27],> 100 µM
same,TGI,[28],91.4 µM
same,TGI,[29],> 100 µM
same,TGI,[30],92.9 µM
same,TGI,[31],> 100 µM
same,TGI,[32],> 100 µM
same,TGI,[33],> 100 µM
same,TGI,[34],> 100 µM
same,TGI,[35],> 100 µM
same,TGI,[36],> 100 µM
same,TGI,[37],> 100 µM
same,TGI,[38],> 100 µM
same,TGI,[39],> 100 µM
same,TGI,[40],> 100 µM
same,TGI,[41],> 100 µM
same,TGI,[42],> 100 µM
same,TGI,[43],> 100 µM
same,TGI,[44],> 100 µM
same,TGI,[45],> 100 µM
same,TGI,[46],> 100 µM
same,TGI,[47],> 100 µM
same,TGI,[48],> 100 µM
same,TGI,[49],> 100 µM
same,TGI,[50],> 100 µM
same,TGI,[51],> 100 µM
same,TGI,[52],> 100 µM
same,TGI,[53],> 100 µM
same,TGI,[54],> 100 µM
Cc1cc2nc3c(C#N)c(-c4ccccc4)/c(=C\Nc4cccc(C(F)(F)F)c4)c(=O)n3c2cc1C,TGI,[1],> 100 µM
same,TGI,[2],> 100 µM
same,TGI,[55],> 100 µM
same,TGI,[3],> 100 µM
same,TGI,[4],> 100 µM
same,TGI,[5],> 100 µM
same,TGI,[56],66.9 µM
same,TGI,[6],> 100 µM
same,TGI,[7],> 100 µM
same,TGI,[8],> 100 µM
same,TGI,[9],> 100 µM
same,TGI,[10],> 100 µM
same,TGI,[11],> 100 µM
same,TGI,[12],> 100 µM
same,TGI,[14],> 100 µM
same,TGI,[15],> 100 µM
same,TGI,[16],> 100 µM
same,TGI,[17],> 100 µM
same,TGI,[18],> 100 µM
same,TGI,[57],> 100 µM
same,TGI,[19],> 100 µM
same,TGI,[21],> 100 µM
same,TGI,[22],> 100 µM
same,TGI,[58],> 100 µM
same,TGI,[23],> 100 µM
same,TGI,[25],> 100 µM
same,TGI,[26],> 100 µM
same,TGI,[27],> 100 µM
same,TGI,[28],> 100 µM
same,TGI,[30],> 100 µM
same,TGI,[31],> 100 µM
same,TGI,[32],> 100 µM
same,TGI,[34],93.7 µM
same,TGI,[36],> 100 µM
same,TGI,[37],> 100 µM
same,TGI,[38],> 100 µM
same,TGI,[39],> 100 µM
same,TGI,[40],> 100 µM
same,TGI,[41],> 100 µM
same,TGI,[42],> 100 µM
same,TGI,[43],> 100 µM
same,TGI,[44],> 100 µM
same,TGI,[45],> 100 µM
same,TGI,[46],> 100 µM
same,TGI,[47],> 100 µM
same,TGI,[49],> 100 µM
same,TGI,[51],54.4 µM
same,TGI,[52],> 100 µM
same,TGI,[53],> 100 µM

# From PubChem BioAssay (NCI)
